Source: the NIST ThermoML archive (doi:10.1016/j.jct.2009.01.010)
“And” between values parts separate entries of the source, which are not always exact repeats. Equal values may be shown once.

Columns and labels:
[1] = 298.15 K, 101 kPa, Liquid; for speed of sound: Linear variable-path acoustic interferometer; for mass density: Pycnometric method
[2] = refractive index (Na D-line) (dimensionless); settings: 298.15 K; 101.33 kPa; Liquid; Abbe refractometer
[3] = xn = mol fraction of the nth substance listed; settings: 298.15 K, 101 kPa, Liquid; for speed of sound: Linear variable-path acoustic interferometer; for mass density: Pycnometric method
[4] = refractive index (Na D-line) (dimensionless); xn = mol fraction of the nth substance listed; settings: 298.15 K, 101 kPa, Liquid, Abbe refractometer

COCCOCCO [2-(2-methoxyethoxy)ethanol]
Settings	mass density [kg/m3]	refractive index	speed of sound [m/s]
[1]	1016.95	–	1422.6
[2]	–	1.425	–

COCCOCCO [2-(2-methoxyethoxy)ethanol] + O
Settings	mass density, [3] [kg/m3]	refractive index, [4]	speed of sound, [3] [m/s]
x1 = 0.013	1002.42	1.341	1546
x1 = 0.026	1008.21	1.349	1582
x1 = 0.051	1017.19	1.36	1640
x1 = 0.064	1021.22	1.366	1646.7
x1 = 0.074	1023.92	1.37	1662
x1 = 0.101	1029.24	1.378	1674
x1 = 0.15	1034.64	1.39	1674
x1 = 0.187	1035.66	1.396	1660
x1 = 0.305	1034.8	1.408	1606
x1 = 0.401	1031.91	1.412	1562
x1 = 0.506	1028.25	1.415	1514
x1 = 0.646	1024.01	1.418	1474
x1 = 0.766	1021.27	1.419	1454
x1 = 0.895	1018.65	1.422	1442
x1 = 1	1016.95	1.425	1422.6

CCOCCO [2-ethoxyethan-1-ol]
Settings	mass density [kg/m3]	refractive index	speed of sound [m/s]
[1]	925.39	–	1302.5
[2]	–	1.4058	–

CCOCCO [2-ethoxyethan-1-ol] + O
Settings	mass density, [3] [kg/m3]	refractive index, [4]	speed of sound, [3] [m/s]
x1 = 0.0092	996.93	1.3389	1541.3
x1 = 0.0177	997.02	1.3415	1553.1
x1 = 0.025	997.2	1.3442	1575.6
x1 = 0.0502	998.06	1.3542	1626.9
x1 = 0.0767	998.24	1.3628	1649.6
x1 = 0.1024	996.67	1.3709	1646.5
x1 = 0.183	988.37	1.3854	1567.6
x1 = 0.299	974.41	1.394	1517.4
x1 = 0.4058	963.11	1.3979	1458.1
x1 = 0.5059	954.22	1.4012	1415.2
x1 = 0.5996	947.01	1.4025	1385.7
x1 = 0.706	940.07	1.4039	1359.6
x1 = 0.8431	933.47	1.4046	1330.4
x1 = 0.8716	932.35	1.4049	1325.6
x1 = 1	925.39	1.4058	1302.5

COCCO [2-methoxyethan-1-ol]
Settings	mass density [kg/m3]	refractive index	speed of sound [m/s]
[1]	960.23	–	1341.7
[2]	–	1.4002	–

COCCO [2-methoxyethan-1-ol] + O
Settings	mass density, [3] [kg/m3]	refractive index, [4]	speed of sound, [3] [m/s]
x1 = 0.0202	999.08	1.34	1546.5
x1 = 0.04	1001.08	1.346	1581
x1 = 0.0539	1002.4	1.35	1600.9
x1 = 0.0822	1004.71	1.357	1636.5
x1 = 0.101	1005.84	1.361	1643.7
x1 = 0.1509	1007.02	1.37	1654.7
x1 = 0.2036	1005.67	1.378	1641.7
x1 = 0.3025	999.82	1.386	1587.3
x1 = 0.4033	992.74	1.391	1532.3
x1 = 0.5009	985.91	1.394	1488.5
x1 = 0.5514	982.57	1.395	1470.9
x1 = 0.6976	974	1.396	1418.8
x1 = 0.7855	969.57	1.398	1392
x1 = 0.889	964.87	1.398	1369.3
x1 = 1	960.23	1.4002	1341.7

CCOCCOCCO [3,6-dioxa-1-octanol]
Settings	mass density [kg/m3]	refractive index	speed of sound [m/s]
[1]	984.6	–	1378
[2]	–	1.425	–

CCOCCOCCO [3,6-dioxa-1-octanol] + O
Settings	mass density, [3] [kg/m3]	refractive index, [4]	speed of sound, [3] [m/s]
x1 = 0.013	1001.37	1.3424	1562
x1 = 0.025	1005.93	1.3515	1602
x1 = 0.05	1013.24	1.3654	1656
x1 = 0.06	1015.27	1.3695	1670.5
x1 = 0.076	1017.84	1.376	1670
x1 = 0.101	1020.05	1.3837	1658
x1 = 0.152	1019.56	1.396	1621
x1 = 0.202	1017.51	1.4028	1601.9
x1 = 0.302	1011.81	1.4108	1549.5
x1 = 0.402	1005.59	1.414	1500
x1 = 0.519	999.21	1.4198	1460
x1 = 0.59	996.2	1.4203	1442
x1 = 0.775	990.78	1.4228	1412
x1 = 0.852	988.76	1.4235	1398
x1 = 1	984.6	1.425	1378

O [water]
Settings	mass density [kg/m3]	refractive index
[1]	999.704	–
[2]	–	1.333 and 1.3325

O [water] + CCOCCO
x2 = 0
Settings	mass density [kg/m3]	refractive index
[3]	999.704	–
[4]	–	1.3325

O [water] + CCOCCOCCO
x2 = 0
Settings	mass density [kg/m3]	refractive index
[3]	999.704	–
[4]	–	1.3325

O [water] + COCCO
x2 = 0
Settings	mass density [kg/m3]	refractive index
[3]	999.704	–
[4]	–	1.333

O [water] + COCCOCCO
x2 = 0
Settings	mass density [kg/m3]	refractive index
[3]	999.704	–
[4]	–	1.333
